BindingDB's records for doi:10.3109/14756366.2010.521745 (Sun Yat-Sen University, 2011)

Target: T1, Polyphenol oxidase 1 (White button mushroom, UniProt Q00024)
T1 sequence (Q00024 whole entry): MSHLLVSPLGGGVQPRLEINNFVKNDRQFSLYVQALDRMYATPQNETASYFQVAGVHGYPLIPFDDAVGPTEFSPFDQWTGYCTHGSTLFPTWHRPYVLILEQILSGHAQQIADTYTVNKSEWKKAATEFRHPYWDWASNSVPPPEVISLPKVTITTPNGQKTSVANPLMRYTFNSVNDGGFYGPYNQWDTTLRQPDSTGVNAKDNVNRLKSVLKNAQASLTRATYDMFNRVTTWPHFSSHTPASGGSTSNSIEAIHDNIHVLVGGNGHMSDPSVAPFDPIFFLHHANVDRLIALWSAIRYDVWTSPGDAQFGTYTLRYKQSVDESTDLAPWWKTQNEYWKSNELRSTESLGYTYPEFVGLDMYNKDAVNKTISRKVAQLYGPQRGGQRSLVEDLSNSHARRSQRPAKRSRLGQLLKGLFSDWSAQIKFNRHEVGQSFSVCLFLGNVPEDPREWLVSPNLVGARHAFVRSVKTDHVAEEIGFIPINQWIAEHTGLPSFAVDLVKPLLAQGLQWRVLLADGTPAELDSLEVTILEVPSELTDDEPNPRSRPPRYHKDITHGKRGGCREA
Assay: Tyrosinase Inhibition Assay
Conditions: pH 6.8; 25 °C
Description: In brief, a 10 μL sample was added to an assay mixture containing with 10 μL tyrosinase solution (0.5 mg/mL) and 900 μL phosphate buffer (pH 6.8) to a total volume assay mixture of 920 μL, for 20 min at 25°C. Then 80 μL of L-dopa (1.50 mg/mL) was added to the reaction mixture and the enzyme reaction was monitoredby measuring the change in absorbance at 475 nm of the L-dopa for 1 min.

Compared with `COc1cc(C(=O)c2ccc(O)c(O)c2O)ccc1O` [Polyhydroxy benzophenone, 9], `COc1cc(C(=O)c2ccc(O)cc2O)ccc1O` [Polyhydroxy benzophenone, 5] is higher in IC50: 6.4 µM for the first, > 200 µM for the second.

First: O=C(c1ccc(O)cc1)c1cc(O)c(O)c(O)c1 [Polyhydroxy benzophenone, 14]
Second: O=C(c1cc(O)c(O)c(O)c1)c1ccc(O)cc1O [Polyhydroxy benzophenone, 6]
The IC50 of the first is 5.6-fold higher: 98.3 µM for the first, 17.4 µM for the second.

Going from `O=C(c1ccccc1)c1c(O)cc(O)cc1O` [Polyhydroxy benzophenone, 16] to `O=C(c1ccccc1)c1ccc(O)c(O)c1O` [phenyl(2,3,4-trihydroxyphenyl)methanone], the IC50 falls from > 200 µM to 10.5 µM.

Compared with `O=C(c1ccccc1)c1cccc(O)c1O` [Polyhydroxy benzophenone, 18], `O=C(c1ccccc1O)c1ccc(O)c(O)c1O` [Polyhydroxy benzophenone, 15] is lower in IC50: > 200 µM for the first, 8.8 µM for the second.

`O=C(c1ccc(O)cc1O)c1c(O)cc(O)cc1O` [Polyhydroxy benzophenone, 11] and `O=C(c1ccc(O)cc1O)c1ccc(O)cc1O` [Polyhydroxy benzophenone, 4] cannot be ordered by IC50: > 200 µM for the first, > 200 µM for the second.

Compared with `O=C(c1ccc(O)cc1)c1ccc(O)c(O)c1O` [hsp90_136], `O=C(c1ccc(O)cc1O)c1ccc(O)c(O)c1O` [Polyhydroxy benzophenone, 8] is lower in IC50: > 100 µM for the first, 10.1 µM for the second.

Compared with `O=C(c1cc(O)c(O)c(O)c1)c1ccc(O)c(O)c1O` [Polyhydroxy benzophenone, 10], `O=C(c1cccc(O)c1)c1ccc(O)cc1O` [Polyhydroxy benzophenone, 12] is higher in IC50: 1.4 µM for the first, > 200 µM for the second.
